Test results: PMC3726599, “A Metabolically-Stabilized Phosphonate Analog of Lysophosphatidic Acid Attenuates Collagen-Induced Arthritis” (PLoS ONE, 2013)

Tests used:
[1] = target: T1, recombinant ATX (Homo sapiens, UniProt Q13822); experiment: Amplex Red activity assay, LPC hydrolysis by recombinant ATX (Echelon); assay type: biochemical; settings: substrate Km, recombinant ATX from Echelon
T1 construct: purchased SinoBiological Inc (main data); R&D (additional Km values)
Experimental: BrP-LPA inhibition was also tested with the more sensitive reagent Amplex Red based on the Amplex™ Red PLD assay kit (Molecular Probes, Interchim, Montluçon, France) originally designed for the measurement of the PLD activity, [49]. All reactions were performed with purified ATX (2 nM) from Echelon at 37°C. The ability of ATX to cleave LPC was detected using a coupled assay that monitors the release of choline using Amplex Red (10 μΜ), choline oxidase (0.2 Units/ml) and horseradish peroxidise (2 Units/ml) The rate of fluorescence increase was measured in a fluorescence plate reader (Tecan Infinite 200 microplate reader from Tecan Trading AG, Switzerland) for up to 80 minutes; the fluorescence increase was linear during that time-frame for all cases. Rates were normalized to control reactions that contained all reaction components except for the test compound.
(§1) The biochemistry of lyso-PLD was assessed by following the kinetics data using a wide panel of different ATX substrates [FS-3, different LPC species (14:0, 16:0, 18:0, 18:1)], three different recombinant ATX proteins (R&D, Sino-Biological and Echelon) and three different ATX activity assays (FS-3, TOOS, Amplex Red). The ATX activity was measured at different substrate concentrations (typically from 1-1000 μM) in order to examine whether ATX follows Michaelis-Menten kinetics. The Michaelis constant (Km) was obtained by fitting the substrate dependence of V (ATX activity) to a rectangular hyperbola using the non-linear regression analysis of the statistical software package Prism 4.0 (GraphPad Software, Inc.). Km and Vmax were evaluated from the rectangular hyperbola curve with the use of GraphPad software.
(§2) For in vitro inhibition measurements, BrP-LPA was dissolved in water as a stock solution (4 mM) and appropriate dilutions were made in water. The inhibition of ATX by BrP-LPA was measured employing 2 nM recombinant ATX, 50 μΜ LPC (14:0, 16:0, 18:0) and 0.01 to 100 μmol/L of BrP-LPA (final concentrations). The in vitro inhibition of ATX by BrP-LPA was evaluated with three different assays (FS-3, Amplex Red, and TOOS). […] BrP-LPA was also tested for its ability to inhibit mouse plasma ATX activity. Diluted mouse plasma was used as the source of ATX and the analysis of inhibition was made with TOOS as the in vitro inhibition assay.
The inhibition model (competitive, noncompetitive, or mixed type inhibition) was evaluated by graphical analysis with Lineweaver–Burk double reciprocal plots (1/[velocity] versus 1/[substrate]) and Cornish-Bowden plot ([substrate]/[velocity] versus [Inhibitor]). These plots were generated by the measurement of ATX activity in the presence of different BrP-LPA concentrations (0–10 μΜ) and increased amounts of 16:0 LPC (100, 200, 400 μΜ). The inhibition constants (Ki) and IC50 values were determined using the mean values obtained from two independent experiments. The relative remaining ATX activity or LPA levels in the presence of the BrP-LPA was expressed as a percentage of the corresponding control value (ATX activity, LPA levels without inhibitor). The IC50 value was determined graphically by plotting the log concentration of BrP-LPA versus relative remaining ATX activity or LPA levels of each test sample using the sigmoid dose–response fitting method (Prism® software). The IC50 (concentration of BrP-LPA sufficient to inhibit ATX activity or diminish LPA levels by 50%) was calculated by the equation f = y0+a/(1+exp(-(x-x0)/b)) given by SigmaPlot 11.0 (Systat Software, Inc., San Jose, CA, USA).
Ki was calculated using the equation of Cheng and Prusoff: Ki = IC50/1+[S]/Km, where Ki is the binding affinity of the inhibitor, IC50 is the functional strength of the inhibitor, [S] is substrate concentration and Km is the concentration of substrate at which enzyme activity is half maximal. Whereas the IC50 value for a compound may vary between experiments depending on experimental conditions, Ki is an absolute value. […]

[2] = target: T1, recombinant ATX; experiment: TOOS activity assay, LPC hydrolysis by recombinant ATX; assay type: biochemical; settings: substrate Km, TOOS
Experimental: ATX/LysoPLD activity was assessed based on the amount of choline released from LPC with the use of TOOS (N-ethyl-N-(2-hydoroxy-3-sulfopropyl)-3-methylaniline) reagent. In this assay ATX-mediated LPC-liberated choline is oxidised by choline oxidase to betaine and hydrogen peroxide (H2O2). The latter in the presence of horseradish peroxidase reacts with TOOS and 4-aminoantipyrene (4-AAP) to form a pink quinoneimine dye measured at 555 nm.
Diluted plasma samples (100 fold dilution; final EDTA concentration 0.5 mM) or recombinant ATX protein (2 nM) were incubated with LPC in the presence of 100 mmol/l Tris–HCl/pH 9.0, 500 mmol/l NaCl, 5 mmol/l MgCl2, 5 mmol/l CaCl2, 60 μM CoCl2 and 0.05% Triton X-100 for 3 h at 37°C at a final volume of 100 μl. It should be noted that EDTA was used not only as an anticoagulant but also as an inhibitor of ATX activity ex vivo [46], in order to suppress artificial LPA production during blood withdrawal and plasma preparation; this is because the same samples were used in phospholipid measurements.
The liberated choline was detected by adding 100 μl of a color mix containing 4-AAP and TOOS (0.3 mM), horseradish peroxidase (5.3 UnitmL^−1) and choline oxidase (2 UnitmL^−1). Absorbance was measured at 555 nm and data were analyzed using the statistical software package Prism 4.0 (Graphpad Software Inc, La Jolla, CA, USA). For each sample and control the absorbance was plotted against time and the slope (da/min) for the linear (steady-state) portion of each reaction profile was calculated. Absorbance units were converted to nmol of choline/min/ml by comparison with a choline standard curve or by use of the extinction coefficient for the quinoneimine dye according to the following equation: [drawing 1] Where Vt* is the total volume of reaction in ml (0.2 ml); Vs* is the volume of sample in ml; e is the millimolar extinction coefficient of quinoneimine dye under the assay conditions (e = e = […]); and 1/2: Factor based on the fact that 1 mol of hydrogen peroxide produces 1/2 mol of quinoneimine dye.
as §1, §2
The inhibition model (competitive, noncompetitive, or mixed type inhibition) was evaluated by graphical analysis with Lineweaver–Burk double reciprocal plots (1/[velocity] versus 1/[substrate]) and Cornish-Bowden plot ([substrate]/[velocity] versus [Inhibitor]). These plots were generated by the measurement of ATX activity in the presence of different BrP-LPA concentrations (0–10 μΜ) and increased amounts of 16:0 LPC (100, 200, 400 μΜ). […]

[3] = parameters: method as in PMID 22354754; settings: cited from earlier work
[4] = system: COX-2 expression from SFs; parameters: method as in PMID 18802115; settings: cited from earlier work
[5] = system: K/BxN serum transfer RA model; parameters: method as in PMID 18491295, PMID 22354754; settings: cited from earlier work
[6] = recombinant ATX from Sinobiological Inc

Structure (SMILES) | Km [1] [µM] | Km ([2]; recombinant ATX from R&D) [µM] | Km [2, 6] [µM] | further results
CCCCCCCCCCCCCC(=O)OC[C@@H](O)COP(=O)([O-])OCC[N+](C)(C)C [14:0 LPC, reference compound] | 80 ± 9 |  |  | 
CCCCCCCCCCCCCCCC(=O)OC[C@@H](O)COP(=O)([O-])OCC[N+](C)(C)C [16:0 LPC, reference compound] |  | 90 | 60 ± 11 | 
CCCCCCCCCCCCCCCCCC(=O)OC[C@@H](O)COP(=O)([O-])OCC[N+](C)(C)C [18:0 LPC, reference compound] | 116 ± 13 | 114 | 82 ± 11 | 
CCCCCCCC/C=C\CCCCCCCC(=O)OC[C@@H](O)COP(=O)([O-])OCC[N+](C)(C)C [18:1 LPC, reference compound] |  |  | 55 ± 10 | 
Cc1noc(-c2ccc(CSCCC(=O)O)cc2)c1NC(=O)OC(C)c1ccccc1Cl (stereo not shown) [ki16425] |  |  |  | half-life [3]: very short half-life; LPA-mediated COX-2 expression [4]: inhibit LPA-mediated COX-2 expression; arthritis severity [5]: reduction of arthritis severity
